Consider 23 molecules from PubChem BioAssay AID434930 (Broad Institute, 2010).

Records with an inconclusive call do not appear. Active and inactive are the calls of the source.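 How the source made its calls: active means fitted EC50 no higher than ten times the highest tested concentration; inconclusive means flat fit with 30 to 70% inhibition, or poor fit; inactive means EC50 beyond ten times the top tested dose.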

In this test the test system is C. albicans CaCi-2 + fluconazole, Alamar Blue growth, 48 h. Kind of test: C. albicans growth inhibition with fluconazole, dose response, C. albicans CaCi-2 (fluconazole-resistant clinical isolate), fluorescence, retest (AID 434930).

As a reminder, the EC50 is the concentration needed to bring the measured effect to its halfway point. For the molecule `O=C(Nc1nc(-c2ccccn2)cs1)c1ccc(Br)s1`, the EC50 is 11100 nM.
The same measure for `COc1ccc(-n2nc(C(=O)NCC(=O)N3CCN(c4ccccc4)CC3)c3ccccc3c2=O)c(OC)c1`: 7170 nM.
As to `COc1ccc(-c2nnc(NC(=O)c3ccc(F)cc3)o2)cc1`, the EC50 is 489 nM.
In the case of `Cc1ccc(/C=C/C(=O)c2ccccc(=O)c2O)cc1C`, the EC50 was > 26000 nM (inactive).
As for `Cc1oc2c(F)c(F)c(F)c(F)c2c1S(=O)(=O)Nc1cccc(C(F)(F)F)c1`, the 50% effective concentration (EC50) was 10800 nM.
To `O=C(Nc1nnc(-c2ccco2)o1)c1ccc(Cl)cc1` belongs 1280 nM.
To `O=C(Nc1sc2c(c1C(=O)c1ccc(Cl)cc1)CCCC2)c1cccnc1` belongs 1830 nM; to `CCCC(=O)NC(c1ccccc1)c1ccc2cccnc2c1O` (stereo not drawn), 577 nM.
The same measure for `Cc1ccc(C(=O)c2coc3c2C(=O)C(=O)c2ccccc2-3)cc1`: 2890 nM.
As to `COc1cc2c(cc1NC(=O)c1ccco1)CCCC2`, the EC50 was 103 nM.
On to `Cc1ccc(C(=O)Nc2cccc(-c3cn4ccccc4n3)c2)cc1`, for which the EC50 was 6790 nM.
The same measure for `O=c1c2cc(Br)ccc2nc(-c2cccc(C(F)(F)F)c2)n1O`: 4160 nM; for `CC(C)N1CCc2c(sc(NC(=O)c3nc4ccccc4s3)c2C(N)=O)C1`: 1190 nM.
On to `CC(C)COCc1ccc(O)c2ncccc12`, for which the concentration giving a half-maximal response (EC50) is 16500 nM.
On to `Cc1nc2ccccc2cc1OCc1ccc(F)cc1`, for which the EC50 was 8450 nM.
The same measure for `O=C(Nc1nnc(-c2ccc3c(c2)CCCC3)o1)c1ccc(Cl)cc1Cl`: 321 nM.
Consider `O=C(NNC1=C(C(=O)C(F)(F)F)CCC1)c1ccc(Cl)cc1`, for which the EC50 is 18800 nM.
For `O=C(Oc1c(Cl)cc(Cl)c2cccnc12)c1cccs1`, the half-maximal effective concentration (EC50) is 280 nM.
Take `CCCC(=O)NC(c1ccc(Cl)cc1)c1ccc2cccnc2c1O` (stereo not drawn): the concentration giving a half-maximal response (EC50) was 486 nM.
To `Nc1nccnc1C(=O)Nc1nnc(SCc2ccc(Cl)cc2)s1` belongs 2110 nM; to `Clc1ccc2c(c1)C(c1cccs1)=NNC(c1cccnc1)=N2`, 77.8 nM.
As to `O=C(Nc1nnc(CCc2ccccc2)s1)c1ccco1`, the EC50 was 3080 nM.
The same measure for `CCOC(=O)N1C(=O)C2(CCCCC2)N(c2ccc(C)cc2)C1=S`: < 100 nM.
